According to patent publication US8858939B2, “Ectopic pregnancy treatment” (Monash University, priority 2009, dated 2014):
“Also recorded” adds a separate entry of the source.

Columns and labels:
[1] = system: JEG-3 cells; assay: CellTiter-Blue cell viability assay, JEG-3 cells; format: cell-based, human; details: for JEG3 cell death, single agent: CellTitre Blue, increasing doses, 48 and 72 hours, FIGS. 7A, 8A
Protocol: (§1) JEG-3 and BeWo cells were cultured in DMEM/F-12 medium containing L-glutamine (Invitrogen) supplemented with 10% fetal calf serum (ICP Biologicals). For treatments with methotrexate (Sigma) or Gefitinib (LC Laboratories) media was replaced with media containing 1% FCS.
(§2) Viability was analysed using the CellTiter-Blue® Cell Viability Assay (Promega).
(§3) Two different placenta-derived trophoblast-like human choriocarcinoma cell lines as well as isolated human first trimester extravillous trophoblast cells were incubated with methotrexate±gefitinib at various concentrations for 72 hours. […] The viability of the JEG-3, BeWo and primary first trimester extravillous trophoblast cells after treatment with methotrexate and gefitinib was assessed by the CellTiter-Blue® Cell Viability Assay.
(§4) JEG-3, BeWo and primary first trimester trophoblast cells were seeded at 5000 cells per well in 96-well plates in DMEM/F-12 culture medium containing 1% foetal bovine serum and 1% penicillin/streptomycin and incubated at 37° C. in a humidified atmosphere of 5% CO2. Approximately 40 hours after seeding, drugs were added to the cells in DMEM/F-12 containing 1% foetal bovine serum. A dose of 100 μM of methotrexate (JEG-3 and primary first trimester trophoblast cells) and 200 μM of methotrexate (syncytialised BeWo cells) was used because this dose decreased cell viability by approximately 50%, as observed in initial dose-response experiments. Cells treated with vehicle (DMSO) served as control cells. In all figures, data are expressed as means±SEM. One-way ANOVA and Student's t test were used to compare means between experimental groups. Statistical significance was assumed at P values<0.05. All experiments have been repeated at least twice.

[2] = system: syncytialised BeWo cells; assay: CellTiter-Blue cell viability assay, syncytialised (forskolin-treated) BeWo cells; format: cell-based, human; details: for BeWo cell death, single agent: CellTitre Blue, increasing doses, FIGS. 7B, 8B
Protocol: as §1, §2, §3, §4
The effect of combined addition of methotrexate and gefitinib on cell viability of syncytialised BeWo cells is shown in FIG. 3. […] Methotrexate and gefitinib were administered to syncytialised (forskolin-treated) BeWo cells and cell viability determined after 72 hours by CellTiter-Blue assay.

[3] = system: JEG3 cells; assay: xCELLigence real-time analysis of JEG3 cell growth; format: cell-based, human; details: for decrease in JEG3 growth (xCELLigence): FIG. 6B
Protocol: The Real-Time Cell Analyzer (RTCA) SP instrument (Roche Diagnostics GmbH) was placed in a humidified incubator maintained at 37° C. with 5% CO2. Cells were seeded at 625-40,000 cells per well in 96-well plates (E-plate 96, Roche Diagnostics GmbH) in medium containing 1% or 10% serum. Cells were initially monitored once every 2 min for 1 h and then once every hour. After addition of treatment, cells were monitored once every 10 min for 3 h and thereafter once every hour.
[…]. By taking continuous measurements, this assay also tracks cell growth longitudinally. […].

[4] = system: subcutaneous JEG3 xenografts; assay: Subcutaneous JEG-3 xenograft model in SCID mice; format: in vivo; details: i.p.; for xenograft tumour volume at the doses chosen for combination: MTX 0.04 mg/dose, gefitinib 0.5 mg/dose; for xenograft tumour volume, single agent at different doses: days 7 and 13 (FIG. 11: days 7, 10 and 13), FIGS. 10A, 10B, 11
Protocol: 5- to 6-week-old female SCID mice (C.B-17-Igh-1^b-Prkdc^scid; Animal Resources Centre, Perth, Australia) were inoculated with JEG-3 cells (10^6 in 100 μL PBS) subcutaneously. Mice were treated starting at day 7 after JEG-3 injection with gefitinib (0.5-2 mg per dose in 50 μL DMSO), methotrexate (0.04-0.4 mg per dose in 100 μL buffer) or respective vehicle (DMSO/buffer) per intraperitoneal injection (i.p.). Xenograft volume in cubic millimeters was determined using the formula (length×width^2)/2, where length was the longest axis and width was the measurement at right angles to the length. The mice were sacrificed after 19 days, at which time we excised the xenografts, weighed and measured them, and collected blood by cardiac puncture. hCG was quantified in mouse serum using the Elegance hCG ELISA assay (Bioclone). The animal study was reviewed and approved by the Monash University Animal Welfare Committee.
A subcutaneous JEG-3 xenograft model as established in SCID mice where 1×10^6 JEG-3 cells were injected into the flanks of mice.
Once palpable, xenograft growth was monitored by measuring tumour length and width every 3 days using digital callipers. Tumour volume in mm^3 was determined using the formula […], where length was the longest axis and width being the measurement at right angles to the length. Data are expressed as average tumour volume±SEM for each treatment group.
Mean tumour volume was monitored by digital calliper measurements every 3 days. Tumour volume was determined as described above.

[5] = system: Akt; assay: Bio-Plex phosphoprotein assay in JEG3 cells, Akt; format: cell-based, human; details: JEG3 cells treated with EGF, FIG. 12A
Protocol: (§5) Cell lysates were analyzed for levels of phosphorylated Akt, p-38 MAPK, IκB-α or Erk1/2 using the Bio-Plex Phosphoprotein Assays (Bio-Rad Laboratories).
(§6) To further explore how these drugs may be acting together to enhance placental cell death, the inventors investigated the phosphorylation status of Akt, p38 mitogen-activated protein kinase (p38-MAPK), extracellular signal-regulated kinase 1/2 (ERK1/2) and IKappaB Kinase (IKB) in response to various treatments in JEG3 cells. These are key signaling molecules representing major downstream pathways of EGFR (Dutta PR & Maity A (2007) Cancer Lett 254:165-177).

[6] = system: p38 MAPK; assay: Bio-Plex phosphoprotein assay in JEG3 cells, p38 MAPK; format: cell-based, human; details: FIG. 12B
Protocol: as §5, §6

[7] = system: ERK1/2; assay: Bio-Plex phosphoprotein assay in JEG3 cells, ERK1/2; format: cell-based, human; details: FIG. 12C
Protocol: as §5, §6

[8] = system: IKB-α; assay: Bio-Plex phosphoprotein assay in JEG3 cells, IKB-α; format: cell-based, human; details: FIG. 12D
Protocol: as §5, §6

[9] = system: developing embryo; details: administered for 11 weeks to a person who conceived during a clinical trial; cited from earlier work
[10] = system: primary first trimester extravillous trophoblast cells; assay: CellTiter-Blue cell viability assay, primary first trimester extravillous trophoblast cells; format: cell-based; details: Homo sapiens, 100 μM methotrexate, initial dose-response experiments, read-out: decrease in cell viability
Description: 1st trimester placenta was collected from healthy women undergoing elective termination of pregnancy (amenorrhea: 8-10 weeks). This research protocol, including written consent from patients, was approved by the Southern Health Human Research and Ethics Committee. From the 1st trimester placental tissue, primary cytotrophoblast was isolated as previously described (Cartwright J E et al., (2002) Placenta 23:232-235). The inventors confirmed the purity of primary cytotrophoblast cells by immunocytochemistry for cytokeratin 7 as previously described (Paiva P et al., (2007) Endocrinology 148:5566-5572).
as §2
as §3, with “Assay. […]” for “Assay.”
Importantly, the efficacy of methotrexate±gefitinib was also assessed in primary human extravillous trophoblast cells isolated from first trimester placenta.

[11] = target: T1, EGFR (Homo sapiens, UniProt P00533); assay: Western blot of EGF induced EGFR phosphorylation in JEG3 cells; format: cell-based; details: pre-incubation of JEG3 cells, FIG. 5
T1 construct: endogenous in cells; host or cells: JEG3 cells
Protocol: Cells were trypsinised, washed and lysed in RIPA buffer (50 mM Tris, 150 mM NaCl, 1% triton, 0.1% SDS, 1 mM EDTA, 0.1% sodium deoxycholate, protease inhibitor cocktail, sodium vanadate) for 10 min prior to 15 min sonication and centrifugation at 4° C. to remove cellular debris. Lysates were resolved by reducing SDS-PAGE and transferred to PVDF membranes using the iBlot dry transfer system (Invitrogen).

[12] = system: caspase-cleaved cytokeratin 18; assay: M30 antibody apoptosis assay (FACS) in JEG3 cells; format: cell-based, human; details: 72 hours, FIG. 13C
Protocol: Cell suspensions were fixed in ice-cold methanol overnight at −20° C., washed in PBS and stained with M30 CytoDeath mouse monoclonal antibody (Sapphire Biosciences), followed by ALEXA® 488-conjugated anti-mouse antibody (Invitrogen). Samples were analyzed on a BD FACS Canto II analyser (BD Biosciences).
Therefore, the inventors performed FACS sorting using the M30 antibody that detects caspase-cleaved cytokeratin 18, a marker of early apoptosis which persists in cells (Ueno T et al., (2005) Biomed Pharmacother 59 Suppl 2, S359-362). […]. The inventors conclude that combination treatment may increase apoptosis in placental cells.

T1 sequence (P00533 25-1210): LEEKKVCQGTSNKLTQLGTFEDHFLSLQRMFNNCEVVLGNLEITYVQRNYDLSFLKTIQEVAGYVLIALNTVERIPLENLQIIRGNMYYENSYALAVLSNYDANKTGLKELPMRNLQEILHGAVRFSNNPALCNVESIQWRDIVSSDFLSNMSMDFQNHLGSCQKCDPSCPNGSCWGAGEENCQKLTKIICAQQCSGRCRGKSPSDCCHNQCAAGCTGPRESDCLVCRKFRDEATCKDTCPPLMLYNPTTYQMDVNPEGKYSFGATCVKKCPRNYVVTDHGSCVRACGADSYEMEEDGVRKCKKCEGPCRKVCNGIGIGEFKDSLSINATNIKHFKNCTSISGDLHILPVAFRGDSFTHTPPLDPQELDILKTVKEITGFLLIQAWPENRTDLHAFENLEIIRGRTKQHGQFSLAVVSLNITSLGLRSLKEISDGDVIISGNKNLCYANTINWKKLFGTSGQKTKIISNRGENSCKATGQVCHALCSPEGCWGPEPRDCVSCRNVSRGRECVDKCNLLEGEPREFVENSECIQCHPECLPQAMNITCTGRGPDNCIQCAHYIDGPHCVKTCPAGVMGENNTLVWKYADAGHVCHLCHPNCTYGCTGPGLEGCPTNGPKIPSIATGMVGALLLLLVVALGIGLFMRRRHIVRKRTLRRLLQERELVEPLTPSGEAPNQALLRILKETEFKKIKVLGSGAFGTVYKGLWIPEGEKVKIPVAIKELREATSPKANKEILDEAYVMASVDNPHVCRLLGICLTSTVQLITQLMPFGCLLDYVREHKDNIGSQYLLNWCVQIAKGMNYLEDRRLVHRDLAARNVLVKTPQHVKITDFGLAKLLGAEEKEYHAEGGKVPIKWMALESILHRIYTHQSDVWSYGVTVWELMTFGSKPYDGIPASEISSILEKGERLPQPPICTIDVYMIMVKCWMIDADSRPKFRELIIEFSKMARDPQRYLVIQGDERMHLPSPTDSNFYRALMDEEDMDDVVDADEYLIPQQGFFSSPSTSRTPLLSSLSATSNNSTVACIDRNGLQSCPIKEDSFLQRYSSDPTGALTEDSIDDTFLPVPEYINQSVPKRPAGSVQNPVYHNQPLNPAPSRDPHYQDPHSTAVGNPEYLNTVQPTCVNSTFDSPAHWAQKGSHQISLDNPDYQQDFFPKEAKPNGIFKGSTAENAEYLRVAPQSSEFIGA

SMILES: COc1cc2ncnc(Nc3ccc(F)c(Cl)c3)c2cc1OCCCN1CCOCC1 [gefitinib, N-(3-chloro-4-fluorophenyl)-7-methoxy-6-(3-morpholinopropoxy)quinazolin-4-amine]
- JEG3 cell death, single agent [1]: not
- JEG3 cell death, single agent ([1]; listed as Gefitinib): little or no cell death
- BeWo cell death, single agent [2]: little or no cell death
- decrease in JEG3 growth (xCELLigence) ([3]; gefitinib 8 μM): small and transient
- decrease in JEG3 growth (xCELLigence) ([3]; gefitinib 2 or 4 μM): no
- xenograft tumour volume at the doses chosen for combination [4]: some reduction
- xenograft tumour volume, single agent at different doses [4]: potent dose dependent reductions; also recorded: regresses
- Akt phosphorylation [5]: potently blocked
- EGF induced p38-MAPK phosphorylation [6]: potently blocked
- EGF induced ERK1/2 phosphorylation [7]: potently blocked
- EGF induced IKB-α phosphorylation [8]: potently blocked

SMILES: CS(=O)(=O)CCNCc1ccc(-c2ccc3ncnc(Nc4ccc(OCc5cccc(F)c5)c(Cl)c4)c3c2)o1 [lapatinib]
- effects on the developing embryo [9]: no ill effects on the developing embryo

SMILES: CN(Cc1cnc2nc(N)nc(N)c2n1)c1ccc(C(=O)N[C@@H](CCC(=O)O)C(=O)O)cc1 [methotrexate]
- JEG3 cell death, single agent ([1]; listed as MTX): in a dose dependent manner
- JEG3 cell death, single agent ([1]; listed as methotrexate (MTX)): kills JEG3 cells in a dose response manner
- cytotoxicity at 100 µM ([1]; Homo sapiens, 100 μM methotrexate, JEG-3 cells, initial dose-response experiments, read-out: decrease in cell viability): ~50%
- BeWo cell death, single agent [2]: in a dose dependent manner
- cytotoxicity at 200 µM ([2]; Homo sapiens, 200 μM methotrexate, syncytialised BeWo cells, initial dose-response experiments, read-out: decrease in cell viability): ~50%
- cytotoxicity at 100 µM [10]: ~50%
- EGF induced EGFR phosphorylation [11]: partially inhibited
- JEG3 cell growth (xCELLigence) ([3]; FIG. 6, combination: gefitinib doses added to a fixed dose of MTX): decreased JEG3 cell growth in a dose dependent manner
- xenograft tumour volume at the doses chosen for combination [4]: some reduction
- xenograft tumour volume, single agent at different doses ([4]; listed as MTX): decrease in xenograft tumour volume was observed with increasing doses
- xenograft tumour volume, single agent at different doses ([4]; listed as Methotrexate (MTX)): regresses
- Akt phosphorylation [5]: significant increase
- M30 staining (caspase-cleaved cytokeratin 18, early apoptosis) [12]: increased expression
